Reference: the NIST ThermoML archive (doi:10.1016/j.jct.2016.10.040)
Numbers after ± are expanded uncertainties.

Tests used:
[1] = Crystal; DTA
[2] = Molar enthalpy of transition or fusion; settings: Crystal; DSC

Normal melting temperature [1]: 55.07 ± 1.1 °C | Molar enthalpy of transition or fusion [2]: 4.76 ± 0.217 kcal/mol
Structure (SMILES): O=Cc1cccc([N+](=O)[O-])c1 [3-nitrobenzaldehyde]
